In article PMC3049939 (Chemical science (Royal Society of Chemistry : 2010), 2011):

Test system: porcine liver esterase (PLE)
Assay: fluorogenic hydrolysis, Michaelis-Menten fit
Type: biochemical, Sus scrofa
Details: HEPES pH 7.4, 23 ± 2 °C, DMSO up to 1.5% v/v

Row | Compound | Km (two ester groups per molecule) | Km
1 | CC(=O)Oc1ccc2c(c1)Oc1cc(OC(C)=O)ccc1C21OC(=O)c2ccccc21 [2a, fluorescein diacetate] | 11 µM | 
2 | CC(=O)OCOc1ccc2nc3ccc(=O)cc-3oc2c1 [compound 9, Resorufin acetoxymethyl ether] |  | 21 µM
3 | CC(=O)Oc1ccc2nc3ccc(=O)cc-3oc2c1 [compound 10, resorufin acetate] |  | 16 µM
4 | Tokyo Green acetate [compound 7] |  | 12 µM
5 | Tokyo green acetoxymethyl ether [compound 6] |  | 13 µM
